In general, viability refers to a read-out of living cells in per cent, often relative to untreated cells.

A short description of the data set: in vitro. Particulars: human, hela cells, % viability.
As for `CN(C)CC(=O)NC(Cc1ccsc1)c1nccs1` (centres unmarked) [CBK284801], the viability at 28.5 h, 10 µM was 91.4%.

For the molecule `CC(C)c1nnc(NC(=O)CC2CCN(C(=O)C3(c4ccccc4)CCCC3)CC2)s1` [CBK285905], the viability at 28.5 h, 10 µM worked out at 94.9%.

Regarding `S=C(NCCN1CCCCC1)NCc1ccco1` [CBK268171], the viability at 28.5 h, 10 µM stood at 107%.

On to `Cc1ccc(N(CC(=O)Nc2ccc(Br)c(C)c2)S(=O)(=O)c2ccc(C)cc2)cc1` [CBK264038], for which the viability at 28.5 h, 10 µM turned out to be 94.6%.

For `Nc1cc2cccnc2c(-c2ccsc2)n1` [CBK081218], the viability at 28.5 h, 10 µM was determined as 89.6%.

Take `CN1CCN(C(=O)Nc2ccc(Cc3ccc(NC(=O)N4CCN(C)CC4)cc3)cc2)CC1` [CBK264852]: the viability at 28.5 h, 10 µM was 104%.

Turning to `COc1cc(CNCCO)cc(Br)c1OCc1cccnc1` [CBK269681C], the viability at 28.5 h, 10 µM is 100%.

Turning to `COc1ccc(NC(=O)C(C)n2nc(C(=O)O)c3ccccc3c2=O)cc1` (centres unmarked) [CBK295322], the viability at 28.5 h, 10 µM came out at 107%.

Turning to `O=C(O)Cc1sc(Nc2ccccc2)nc1-c1ccccc1` [CBK286775], the viability at 28.5 h, 10 µM worked out at 97.2%.

`Nc1c(Cc2c(Cl)cccc2Cl)c(=O)n2n1CCCC2` [CBK089337]: the viability at 28.5 h, 10 µM came to 95%.

As for `COc1cc(F)cc(OC2CCNCC2)c1NC(=O)C1CCC1` [CBK045912T], the viability at 28.5 h, 10 µM stood at 92.3%.

For the molecule `CCN(CC)CCOC(=O)NS(=O)(=O)c1ccc(Cl)cc1` [CBK288510], the viability at 28.5 h, 10 µM worked out at 97.6%.

For `COc1ccc(CCC(=O)N2CCC(c3cccc(Cc4cccc(F)c4)n3)CC2)cc1` [CBK286212], the viability at 28.5 h, 10 µM turned out to be 105%.

As for `CCN(CC)CCn1c(NC(=O)c2c(Cl)nc3ccccn23)nc2ccccc21` [CBK298305], the viability at 28.5 h, 10 µM turned out to be 107%.

As to `Cc1nnc(CCNC(=O)c2cccc(C#N)c2)n1C` [CBK306017], the viability at 28.5 h, 10 µM stood at 85.4%.

On to `Cc1cccc(-c2cn3ccnc3c(N3CCN(c4ccccn4)CC3)n2)c1` [CBK066478], for which the viability at 28.5 h, 10 µM stood at 89.3%.

As for `O=C(CCn1c(-c2ccccc2)c(-c2ccccc2)c2ccccc21)N/N=C/c1cccc(O)c1` [CBK262348], the viability at 28.5 h, 10 µM was 52.1%.

In the case of `CCCN(C(C)=O)c1nc(O)cc(C(F)(F)F)n1` [CBK000427], the viability at 28.5 h, 10 µM was 85.5%.

Take `CCOC(=O)C1=C(C(=O)OCC)SC(=C2C(=S)C(C)(C)N(C(=O)c3ccc4ccccc4c3)c3ccccc32)S1` [CBK261643]: the viability at 28.5 h, 10 µM is 103%.

Regarding `CC(=O)NC[C@H]1CN(c2ccc(C3CNC3)c(F)c2)C(=O)O1` [CBK013035], the viability at 28.5 h, 10 µM came to 82.8%.

For `Cc1cc2nc(SCc3nc4ccccc4[nH]3)[nH]c2cc1C` [CBK264233], the viability at 28.5 h, 10 µM is 97.4%.

Turning to `Nc1nnc(CC(=O)N/N=C/c2cc(Br)c(O)c(Br)c2O)s1` [CBK262131], the viability at 28.5 h, 10 µM came to 96%.

Regarding `Cc1nn(CC(=O)Nc2ccc3c(c2)nc(CN2CCCC2)n3C)c(=O)c2ccccc12` [CBK268465], the viability at 28.5 h, 10 µM turned out to be 97.5%.

As to `Cc1cc(OCC(=O)NN2CCN(C)CC2)ccc1[N+](=O)[O-]` [CBK268136], the viability at 28.5 h, 10 µM came to 99.8%.

`CCC(=O)Nc1nc2ccccc2n1CCCN(C)C` [CBK263492]: the viability at 28.5 h, 10 µM is 102%.

`O=C(OCCC1SC(NC2CC3C=CC2C3)=NC1=O)c1ccc(Cl)c(Cl)c1` (centres unmarked) [CBK200056T]: the viability at 28.5 h, 10 µM came to 87.1%.

Consider `CCSc1nc(=O)c2c(n1C)NC(=O)CC2c1ccc(OC)cc1` (centres unmarked) [CBK307542], for which the viability at 28.5 h, 10 µM came to 89.9%.

Regarding `COc1ccc(CN(C)C2CCOCC2)cc1Cn1cncn1` [CBK306728], the viability at 28.5 h, 10 µM was 93.9%.

On to `Cc1nn(-c2ccc(N3CCNCC3)nn2)c(=O)c2ccccc12` [CBK270067], for which the viability at 28.5 h, 10 µM was determined as 88.1%.

In the case of `CN(C)CCNC(=O)c1cccc(-c2cncc(N3CCN(c4ccncc4)CC3)n2)c1` [CBK065391], the viability at 28.5 h, 10 µM amounted to 100%.

As for `OC1(c2ccc(F)cc2)CC2CCC(C1)N2` (centres unmarked) [CBK281947], the viability at 28.5 h, 10 µM amounted to 89.7%.

For the molecule `CN1CCN(C(=O)c2cnc3cc(C(F)(F)F)ccc3c2O)CC1` [CBK107423], the viability at 28.5 h, 10 µM turned out to be 105%.

Take `Cc1nc2c(c(=O)[nH]1)CCN(Cc1[nH]c3ccc(F)cc3c1C)C2` [CBK283996]: the viability at 28.5 h, 10 µM came out at 89.4%.

`CC1CCN(C(=S)NC2CC3CCC2C3)CC1` (centres unmarked) [CBK085998]: the viability at 28.5 h, 10 µM is 91.3%.

`O=C(COc1cccc2ccccc12)Nc1ccc(O)cc1` [CBK266002]: the viability at 28.5 h, 10 µM was 88.6%.

In the case of `O=C(O)CCC(=O)Nc1cc(C(F)(F)F)ccc1N1CCCC1` [CBK057434], the viability at 28.5 h, 10 µM worked out at 94.2%.

For the molecule `O=C(CNS(=O)(=O)Cc1ccccc1[N+](=O)[O-])N1CCOCC1` [CBK042220], the viability at 28.5 h, 10 µM came out at 82.7%.

For the molecule `COc1ccc(-c2cc(C(=O)Nc3ccc(OC(F)(F)F)cc3)cnc2-c2ccccc2)cn1` [CBK036621], the viability at 28.5 h, 10 µM is 79.2%.

For the molecule `O=C(O)CCN1CCN(S(=O)(=O)c2ccccc2)CC1` [CBK269402], the viability at 28.5 h, 10 µM is 106%.

Take `CC(C)C(=O)Nc1ccc2c(c1)C(=O)N(CCC(=O)O)C2=O` [CBK286544]: the viability at 28.5 h, 10 µM was 86.1%.

`O=C(O)c1ccc(NC(=O)c2nccnc2C(=O)O)cc1` [CBK260916]: the viability at 28.5 h, 10 µM is 97.7%.

With `CN(C)CCSc1cc(N2CCCC2)ncn1` [CBK105295], the viability at 28.5 h, 10 µM was 116%.

For the molecule `CCSc1nnc(-c2ccc([N+](=O)[O-])cc2)n1CC(C)C` [CBK076724T], the viability at 28.5 h, 10 µM was determined as 108%.

With `Brc1ccc(-c2nnco2)cc1` [CBK026512], the viability at 28.5 h, 10 µM worked out at 84.3%.

For `CN1CCC(=NNC(=O)c2ccc(N(Cc3ccccc3)S(C)(=O)=O)cc2)CC1` [CBK262742], the viability at 28.5 h, 10 µM was 82.4%.

Consider `CN1CCCC(C(O)c2ccccc2)C1` (centres unmarked) [CBK012472], for which the viability at 28.5 h, 10 µM is 96.9%.

Turning to `CSc1ncc(Cl)c(C(=O)Nc2sc3c(c2C(=O)NC2CCS(=O)(=O)C2)CCC(C)C3)n1` (centres unmarked) [CBK268886], the viability at 28.5 h, 10 µM turned out to be 95.2%.

With `CCOC(=O)CC1C(=O)NCCN1C/C=C/c1ccccc1` (centres unmarked) [CBK269922], the viability at 28.5 h, 10 µM worked out at 90.7%.

With `COCC(=O)N[C@H]1CCN2C(=O)c3cc(-c4ccc(F)cc4F)ccc3NC(=O)[C@@H]2C1` [CBK289561], the viability at 28.5 h, 10 µM came out at 78.6%.

Turning to `COc1ccc(CC(=O)N2CCC(c3cc4ncccc4[nH]3)CC2)cc1` [CBK283386], the viability at 28.5 h, 10 µM came out at 84.3%.

On to `N#Cc1c(NC(=O)Cn2cnc3sc(-c4ccccc4)cc3c2=O)sc2c1CCC2` [CBK268053], for which the viability at 28.5 h, 10 µM worked out at 95.2%.

For the molecule `Cc1ccc(NC(=O)c2nc3ccccc3[nH]2)c(C)n1` [CBK200296], the viability at 28.5 h, 10 µM is 94.4%.

As for `Cc1ccc(S(=O)(=O)N2CCOCC2)cc1-c1cncc(-c2ccc(O)cc2)n1` [CBK123789], the viability at 28.5 h, 10 µM is 103%.

With `c1ccc2oc(CN3Cc4nc[nH]c4C[C@H]3c3nc(-c4cnccn4)no3)cc2c1` [CBK288954], the viability at 28.5 h, 10 µM worked out at 113%.

As for `CCC(=O)Nc1ccc(-c2csc(N3CCSCC3)n2)cc1` [CBK306469], the viability at 28.5 h, 10 µM is 87%.

Regarding `COc1ccc(Cl)cc1CN(C)C(=O)c1ccc[nH]c1=O` [CBK305933], the viability at 28.5 h, 10 µM was 90.6%.

For `O=C(NCc1ccncc1)c1cc(-c2ccc(Cl)cc2)on1` [CBK116559], the viability at 28.5 h, 10 µM turned out to be 85.7%.

As to `c1ccc(-c2nn3c(Cn4nnc5ccccc54)nnc3s2)cc1` [CBK268271], the viability at 28.5 h, 10 µM amounted to 106%.

`O=C(Cn1cnc2ccc(F)cc2c1=O)N1CCOC2CCCC21` (centres unmarked) [CBK304932]: the viability at 28.5 h, 10 µM was 90.4%.

As for `COc1ccc(-c2nc3cc(C(C)C)ccc3o2)cc1NC(=O)Cc1ccc(Cl)cc1` [CBK266409], the viability at 28.5 h, 10 µM stood at 96.9%.

Turning to `CCOC(=O)CNS(=O)(=O)c1ccc(-c2ccccc2)cc1` [CBK034435], the viability at 28.5 h, 10 µM came out at 99.5%.

Consider `CCCNC(=O)CN(C)Cc1nc(-c2cccc(C(F)(F)F)c2)no1` [CBK305672], for which the viability at 28.5 h, 10 µM was 103%.

Take `COc1cccc(CC(=O)NCc2ccccc2OC2CCNC2)c1` (centres unmarked) [CBK024487T]: the viability at 28.5 h, 10 µM turned out to be 88.5%.

For the molecule `O=[N+]([O-])c1ccc(N2CCCCC2)s1` [CBK016566], the viability at 28.5 h, 10 µM was 104%.

In the case of `CC(C)c1ccc(NC(=O)O[C@@H]2CO[C@H]3[C@@H]2OC[C@@H]3NC(=O)c2cncnc2)cc1` [CBK289480], the viability at 28.5 h, 10 µM was found to be 105%.

In the case of `Oc1cccc(-c2cn3ccnc3c(NCc3ccccn3)n2)c1` [CBK037535], the viability at 28.5 h, 10 µM worked out at 102%.

On to `CS(=O)(=O)N(CC(=O)N/N=C/c1ccncc1)c1ccccc1Br` [CBK263911], for which the viability at 28.5 h, 10 µM is 100%.

For `Cc1ccc(-c2n[nH]c(=S)n2CCC(=O)NCc2ccc(-c3csc(C)n3)s2)cc1` [CBK297924], the viability at 28.5 h, 10 µM came to 84.5%.

Take `Cc1cc(N2CCN(CC(=O)c3ccc(Cl)cc3)CC2)c2ccccc2n1` [CBK066868]: the viability at 28.5 h, 10 µM is 106%.

As to `N#CCNS(=O)(=O)c1ccc(OC(F)(F)F)cc1` [CBK044841], the viability at 28.5 h, 10 µM turned out to be 111%.

`O=C(NC1CC2(CCCC2)Oc2ccccc21)C1CCCO1` (centres unmarked) [CBK282420]: the viability at 28.5 h, 10 µM worked out at 110%.

In the case of `Cc1cccc(CN2CCC(NC(=O)Cn3cc(Br)ccc3=O)CC2)c1` [CBK305669], the viability at 28.5 h, 10 µM was determined as 80%.

For `O=[N+]([O-])c1ccc(NC(=S)NCCCn2ccnc2)cc1` [CBK264915], the viability at 28.5 h, 10 µM was 93.3%.

`COc1ccc(C(=O)C2=C(O)C(=O)N(Cc3cccnc3)C2c2cccc([N+](=O)[O-])c2)cc1` (centres unmarked) [CBK264661]: the viability at 28.5 h, 10 µM was 99.5%.

For `Cn1c(=O)oc2ccc(C(=O)NCCN3CCCCC3CO)cc21` (centres unmarked) [CBK307594], the viability at 28.5 h, 10 µM is 78%.

As for `COc1ccc(Br)cc1CN1CCN(Cc2cccc([N+](=O)[O-])c2)CC1` [CBK263347], the viability at 28.5 h, 10 µM turned out to be 91.6%.

With `COc1ccc(OC)c(NC(=O)Cn2cc(C(C)=O)c3ccccc32)c1` [CBK268661], the viability at 28.5 h, 10 µM came to 92.5%.

Take `CC(C)CN1C(=O)c2ccc(C(=O)NCc3ccc(C(=O)O)cc3)cc2C1=O` [CBK286898]: the viability at 28.5 h, 10 µM worked out at 116%.

In the case of `CCn1cc(CN(CCCN(C)C)Cc2ccc(C)o2)c(C)n1` [CBK283201], the viability at 28.5 h, 10 µM is 95.5%.

For `CC(C)N/C(=N/S(=O)(=O)c1ccccc1)c1ccccc1` [CBK262346], the viability at 28.5 h, 10 µM worked out at 98.2%.
